Measurements reported in ChEMBL document CHEMBL3132769, “Fragment growing to retain or alter the selectivity of anchored kinase hinge-binding fragments” (Medchemcomm, 2014).

Key:
[1] = target: Casein kinase I isoform delta (Homo sapiens) (UniProt P48730); test: Inhibition of human CK1D catalytic domain expressed in Escherichia coli cell assessed as substrate phosphorylation using fluorescence-labelled peptides as substrate at 9 uM after 90 mins by microfluidic peptide phosphorylation assay
[2] = target: Serine/threonine-protein kinase MARK1 (Homo sapiens) (UniProt Q9P0L2); test: Inhibition of human full length MARK1 expressed in baculovirus assessed as substrate phosphorylation using fluorescence-labelled peptides as substrate at 9 uM after 90 mins by microfluidic peptide phosphorylation assay
[3] = target: Serine/threonine-protein kinase pim-1 (Homo sapiens) (UniProt P11309); test: Inhibition of human full length PIM1 expressed in baculovirus assessed as substrate phosphorylation using fluorescence-labelled peptides as substrate at 9 uM after 90 mins by microfluidic peptide phosphorylation assay
[4] = target: Tyrosine-protein kinase Lck (Homo sapiens) (UniProt P06239); test: Inhibition of human full length LCK expressed in baculovirus assessed as substrate phosphorylation using fluorescence-labelled peptides as substrate at 9 uM after 90 mins by microfluidic peptide phosphorylation assay
[5] = target: Ribosomal protein S6 kinase alpha-3 (Homo sapiens) (UniProt P51812); test: Inhibition of human full length RSK2 expressed in baculovirus assessed as substrate phosphorylation using fluorescence-labelled peptides as substrate at 2 uM after 90 mins by microfluidic peptide phosphorylation assay
[6] = target: T1, Serine/threonine-protein kinase 3 (Homo sapiens) (UniProt Q13188); test: Inhibition of human full length MST2 expressed in baculovirus assessed as substrate phosphorylation using fluorescence-labelled peptides as substrate at 95 uM after 90 mins by microfluidic peptide phosphorylation assay
T1 sequence (whole entry): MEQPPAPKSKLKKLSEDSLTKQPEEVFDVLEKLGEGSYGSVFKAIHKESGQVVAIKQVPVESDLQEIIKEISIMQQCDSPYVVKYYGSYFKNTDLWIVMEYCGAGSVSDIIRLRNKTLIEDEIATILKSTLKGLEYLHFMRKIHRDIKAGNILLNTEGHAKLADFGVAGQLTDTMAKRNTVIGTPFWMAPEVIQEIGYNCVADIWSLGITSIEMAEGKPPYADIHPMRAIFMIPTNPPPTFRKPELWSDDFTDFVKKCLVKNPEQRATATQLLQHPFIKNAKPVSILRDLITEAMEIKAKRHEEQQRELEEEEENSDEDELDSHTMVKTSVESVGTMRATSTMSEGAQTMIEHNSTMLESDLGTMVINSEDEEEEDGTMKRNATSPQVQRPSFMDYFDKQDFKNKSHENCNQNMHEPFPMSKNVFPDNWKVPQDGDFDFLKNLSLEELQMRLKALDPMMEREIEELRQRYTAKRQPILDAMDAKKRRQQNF

[7] = target: MAP kinase p38 (Homo sapiens) (UniProt O15264+Q15759+Q16539+P53778); test: Inhibition of human full length p38 beta2 expressed in Escherichia coli cell assessed as substrate phosphorylation using fluorescence-labelled peptides as substrate at […] after 90 mins by microfluidic peptide phosphorylation assay
[8] = target: T2, Serine/threonine-protein kinase D2 (Homo sapiens) (UniProt Q9BZL6); test: Inhibition of human full length PKD2 expressed in baculovirus assessed as substrate phosphorylation using fluorescence-labelled peptides as substrate at 0.06 uM after 90 mins by microfluidic peptide phosphorylation assay
T2 sequence (whole entry): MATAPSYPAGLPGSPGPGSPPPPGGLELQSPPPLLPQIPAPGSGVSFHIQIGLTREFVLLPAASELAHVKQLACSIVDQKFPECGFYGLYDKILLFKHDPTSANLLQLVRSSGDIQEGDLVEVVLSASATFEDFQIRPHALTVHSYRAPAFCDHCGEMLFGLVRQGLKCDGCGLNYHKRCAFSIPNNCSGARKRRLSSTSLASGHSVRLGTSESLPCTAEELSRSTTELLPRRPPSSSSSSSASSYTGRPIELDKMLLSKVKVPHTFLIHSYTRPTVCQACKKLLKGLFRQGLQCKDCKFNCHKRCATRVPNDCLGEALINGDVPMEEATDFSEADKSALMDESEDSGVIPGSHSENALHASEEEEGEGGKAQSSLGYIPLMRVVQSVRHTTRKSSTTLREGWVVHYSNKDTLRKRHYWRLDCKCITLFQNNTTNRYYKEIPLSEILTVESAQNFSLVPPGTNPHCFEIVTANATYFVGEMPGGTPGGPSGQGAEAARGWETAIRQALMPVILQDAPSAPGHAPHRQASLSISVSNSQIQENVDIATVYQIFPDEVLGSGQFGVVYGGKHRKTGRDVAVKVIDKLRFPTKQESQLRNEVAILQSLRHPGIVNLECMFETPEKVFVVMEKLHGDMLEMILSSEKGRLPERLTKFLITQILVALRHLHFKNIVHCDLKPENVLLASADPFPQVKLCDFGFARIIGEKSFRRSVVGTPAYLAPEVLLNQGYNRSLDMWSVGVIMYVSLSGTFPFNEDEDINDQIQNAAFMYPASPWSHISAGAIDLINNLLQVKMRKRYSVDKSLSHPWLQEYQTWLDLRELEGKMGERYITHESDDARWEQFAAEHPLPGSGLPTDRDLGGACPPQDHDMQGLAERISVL

[9] = target: T3, cGMP-dependent protein kinase 1 (Homo sapiens) (UniProt Q13976); test: Inhibition of human full length PKG-1beta expressed in baculovirus assessed as substrate phosphorylation using fluorescence-labelled peptides as substrate at 70 uM after 90 mins by microfluidic peptide phosphorylation assay
T3 sequence (whole entry): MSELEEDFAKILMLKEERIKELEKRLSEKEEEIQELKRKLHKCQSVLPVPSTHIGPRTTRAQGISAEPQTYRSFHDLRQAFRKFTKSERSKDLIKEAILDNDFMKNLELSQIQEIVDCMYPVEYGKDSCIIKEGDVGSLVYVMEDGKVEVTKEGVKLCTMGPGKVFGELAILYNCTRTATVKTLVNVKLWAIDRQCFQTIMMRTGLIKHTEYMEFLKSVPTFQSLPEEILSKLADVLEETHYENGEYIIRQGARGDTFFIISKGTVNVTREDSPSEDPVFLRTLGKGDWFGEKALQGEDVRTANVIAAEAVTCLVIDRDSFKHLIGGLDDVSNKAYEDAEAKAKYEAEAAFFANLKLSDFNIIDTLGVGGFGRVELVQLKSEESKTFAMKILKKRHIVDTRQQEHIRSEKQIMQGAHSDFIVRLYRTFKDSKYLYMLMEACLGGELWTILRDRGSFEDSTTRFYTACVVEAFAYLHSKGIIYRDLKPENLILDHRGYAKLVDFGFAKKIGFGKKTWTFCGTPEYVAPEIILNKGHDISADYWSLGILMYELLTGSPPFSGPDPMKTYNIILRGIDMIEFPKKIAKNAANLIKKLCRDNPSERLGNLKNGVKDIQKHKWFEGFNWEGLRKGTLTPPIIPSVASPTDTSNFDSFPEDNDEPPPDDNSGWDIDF

[10] = target: T2, Serine/threonine-protein kinase D2 (Homo sapiens); test: Inhibition of human full length PKD2 expressed in baculovirus assessed as substrate phosphorylation using fluorescence-labelled peptides as substrate at 70 uM after 90 mins by microfluidic peptide phosphorylation assay

Ribosomal protein S6 kinase alpha-3 (Homo sapiens), sequence (P51812 whole entry): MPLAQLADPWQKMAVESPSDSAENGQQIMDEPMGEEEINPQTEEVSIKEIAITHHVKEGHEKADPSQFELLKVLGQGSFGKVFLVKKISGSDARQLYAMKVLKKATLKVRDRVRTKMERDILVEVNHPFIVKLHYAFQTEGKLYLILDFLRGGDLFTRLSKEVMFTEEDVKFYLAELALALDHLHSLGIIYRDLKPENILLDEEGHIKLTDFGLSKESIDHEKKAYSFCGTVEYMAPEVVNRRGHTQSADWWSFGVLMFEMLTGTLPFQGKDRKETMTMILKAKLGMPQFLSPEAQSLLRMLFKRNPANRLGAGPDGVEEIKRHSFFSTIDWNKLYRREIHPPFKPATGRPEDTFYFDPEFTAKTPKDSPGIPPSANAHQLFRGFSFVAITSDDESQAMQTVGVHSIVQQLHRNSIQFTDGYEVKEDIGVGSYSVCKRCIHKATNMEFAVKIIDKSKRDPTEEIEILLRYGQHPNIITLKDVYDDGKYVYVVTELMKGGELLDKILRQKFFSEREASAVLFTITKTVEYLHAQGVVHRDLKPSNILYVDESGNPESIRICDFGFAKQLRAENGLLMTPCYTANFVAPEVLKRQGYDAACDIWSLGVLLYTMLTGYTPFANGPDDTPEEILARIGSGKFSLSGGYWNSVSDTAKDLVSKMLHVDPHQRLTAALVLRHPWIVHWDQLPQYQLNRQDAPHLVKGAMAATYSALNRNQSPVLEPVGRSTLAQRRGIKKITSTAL
Casein kinase I isoform delta (Homo sapiens), sequence (P48730 whole entry, looked up, the tested form may be a part, canonical isoform): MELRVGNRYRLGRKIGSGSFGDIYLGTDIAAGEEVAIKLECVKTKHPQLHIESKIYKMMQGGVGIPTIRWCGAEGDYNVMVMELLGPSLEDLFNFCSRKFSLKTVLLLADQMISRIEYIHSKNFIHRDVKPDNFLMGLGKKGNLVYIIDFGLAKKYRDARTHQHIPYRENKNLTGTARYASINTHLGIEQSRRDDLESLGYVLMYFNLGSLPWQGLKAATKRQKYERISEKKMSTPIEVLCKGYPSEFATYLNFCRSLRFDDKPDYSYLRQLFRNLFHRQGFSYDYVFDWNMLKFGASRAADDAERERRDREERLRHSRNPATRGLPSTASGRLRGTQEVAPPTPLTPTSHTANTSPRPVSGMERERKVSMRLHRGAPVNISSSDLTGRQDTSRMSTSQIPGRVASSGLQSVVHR
Tyrosine-protein kinase Lck (Homo sapiens), sequence (P06239 2-509 limits assumed): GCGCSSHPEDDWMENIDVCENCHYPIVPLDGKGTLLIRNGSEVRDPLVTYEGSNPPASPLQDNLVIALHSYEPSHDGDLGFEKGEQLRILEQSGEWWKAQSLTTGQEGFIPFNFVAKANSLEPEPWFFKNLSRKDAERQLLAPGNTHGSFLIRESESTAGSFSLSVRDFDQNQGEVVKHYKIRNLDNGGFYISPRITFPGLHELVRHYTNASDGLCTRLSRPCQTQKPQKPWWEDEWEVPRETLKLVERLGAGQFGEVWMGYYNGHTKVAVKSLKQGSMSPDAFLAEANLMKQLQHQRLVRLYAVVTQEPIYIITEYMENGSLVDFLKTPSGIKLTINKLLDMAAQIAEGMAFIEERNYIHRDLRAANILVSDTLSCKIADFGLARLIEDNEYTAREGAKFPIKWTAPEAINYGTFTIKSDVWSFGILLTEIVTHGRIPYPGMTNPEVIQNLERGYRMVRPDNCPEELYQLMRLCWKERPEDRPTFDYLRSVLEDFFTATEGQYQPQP
Serine/threonine-protein kinase pim-1 (Homo sapiens), sequence (P11309 whole entry, looked up): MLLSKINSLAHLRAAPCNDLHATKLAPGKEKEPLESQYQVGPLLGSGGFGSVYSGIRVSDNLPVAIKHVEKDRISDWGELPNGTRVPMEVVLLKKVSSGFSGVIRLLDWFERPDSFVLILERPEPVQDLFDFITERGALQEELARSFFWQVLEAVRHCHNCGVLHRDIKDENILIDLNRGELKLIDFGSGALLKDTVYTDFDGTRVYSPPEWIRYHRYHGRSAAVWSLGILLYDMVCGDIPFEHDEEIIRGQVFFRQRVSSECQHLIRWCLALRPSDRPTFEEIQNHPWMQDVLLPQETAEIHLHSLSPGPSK
Serine/threonine-protein kinase MARK1 (Homo sapiens), sequence (Q9P0L2 whole entry, looked up): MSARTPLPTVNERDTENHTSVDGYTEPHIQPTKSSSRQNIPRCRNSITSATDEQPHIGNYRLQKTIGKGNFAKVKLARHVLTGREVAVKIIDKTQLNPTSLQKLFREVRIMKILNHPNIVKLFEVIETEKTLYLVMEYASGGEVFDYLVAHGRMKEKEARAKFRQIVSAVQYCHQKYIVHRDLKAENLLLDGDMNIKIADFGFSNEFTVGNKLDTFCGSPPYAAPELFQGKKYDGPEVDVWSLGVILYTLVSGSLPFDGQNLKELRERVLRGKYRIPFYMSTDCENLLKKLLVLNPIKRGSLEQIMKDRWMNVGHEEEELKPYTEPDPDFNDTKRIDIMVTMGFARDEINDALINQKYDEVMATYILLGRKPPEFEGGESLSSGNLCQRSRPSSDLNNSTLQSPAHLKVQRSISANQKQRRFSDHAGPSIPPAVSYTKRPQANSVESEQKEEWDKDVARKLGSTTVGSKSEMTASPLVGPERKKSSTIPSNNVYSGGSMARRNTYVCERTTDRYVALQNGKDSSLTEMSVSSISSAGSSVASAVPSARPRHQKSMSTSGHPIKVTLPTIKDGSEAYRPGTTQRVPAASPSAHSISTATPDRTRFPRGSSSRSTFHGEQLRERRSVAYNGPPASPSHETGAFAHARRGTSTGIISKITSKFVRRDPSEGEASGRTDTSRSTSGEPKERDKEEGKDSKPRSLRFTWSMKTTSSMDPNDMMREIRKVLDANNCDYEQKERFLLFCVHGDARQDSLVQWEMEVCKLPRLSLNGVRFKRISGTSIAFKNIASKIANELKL

Compound: NCC1CN(c2ncnc3[nH]c4cnccc4c23)CCO1 (stereo not given)
- inhibition [1]: 39.5%
- inhibition [2]: 2%
- inhibition [3]: 36.5%
- inhibition [4]: 39%

Compound: NC1CCN(c2ncnc3[nH]ccc23)CC1
- inhibition [5]: 2%

Compound: NCCc1ccc(-c2ncnc3[nH]cnc23)cc1
- inhibition [6]: 86.5%

Compound: COC(=O)c1cnc(Nc2cnc(C#N)cn2)cc1NCC1CCNCC1
- inhibition [7]: 1%

Compound: NC1(Cc2ccc(Cl)cc2)CCN(c2ncnc3[nH]ccc23)CC1
- inhibition [8]: 1.5%

Compound: CNCc1ccc(-c2ncnc3[nH]cnc23)cc1
- inhibition [9]: 95.5%
- inhibition [10]: 77.5%
